Laboratory results as given in patent US8598123B2, “Peptide analogues” (Pfizer Inc., priority 2010, dated 2013).
Where two headings read alike, the source gives them in different places.

How the values were obtained:
[1] = Human liver microsomal stability assay (HLM); type: in vitro ADME; conditions: 37° C., 1 h time course, read-out: HLM clearance
Excerpt: (§1) In vitro measurement of substrate metabolism can be determined using the microsomal cytochrome P450 mono-oxygenase system. This is a useful application in ranking clearance of a number of compounds by Phase I (including cytochrome P450) metabolism prior to in vivo assessment Measurement of intrinsic clearance using these methods also allows a comparison of species difference to be made to assist with translation of pharmacokinetic parameters from preclinical to clinical study.
(§2) Rat and Human Liver Microsomal Stability Assay (RLM and HLM Respectively)
(§3) Human and rat Liver microsomal assays were performed using pooled microsomes from the Pfizer Global Supply (BD Gentest™). Chemical reagents were purchased from commercial sources (Sigma-Aldrich) and drug entities synthesised at Pfizer Global Research. Incubation mixtures contained 50 mM phosphate buffer pH 7.4, 5 mM MgCl2, 5 mM isocitric acid and 1 unit/ml isocitric dehydrogenase. The microsomes were defrosted at room temperature and sufficient volumes added to give a final concentration of 0.5 nmol cytochrome P450/ml. Following the addition of 1 μM of substrate, the incubation was pre-incubated at 37° C. for 5 minutes. The reaction was then initiated by the addition of 1 mM NADP and incubation aliquots are taken over a 1 h time course. The reaction was subsequently stopped by addition of acetonitrile cooled on ice. The incubation mixture was then centrifuged and the supernatant removed for injection onto LC-MS/MS system. Providing that the substrate concentration is below the Km, the metabolism should be first order giving a log-linear plot of substrate disappearance over time. The gradient of this line is the first order rate constant (k) and this maybe converted to estimate a substrates intrinsic clearance when factoring in the protein concentration.
(§4) The intrinsic clearance in rat or human liver microsomes is calculated from:
(§5) Where, k=−slope of Ln concentration vs. time (min−1)

[2] = Rat liver microsomal stability assay (RLM); type: in vitro ADME; conditions: 37° C., 1 h time course, read-out: RLMclearance
Excerpt: as §1, §2, §3, §4, §5

physchem = conditions: pH 7.4
Excerpt: LogD octanol (pH 7.4) is a measure of lipophilicity that accounts for both hydrophobic and hydrogen-bonding interactions of a given substrate. This assay is based on shake-flask methodology, performed in a fully automated manner in a 0.1M phosphate buffer pH7.4—octanol system.
After addition of the test substance in DMSO stock solution to the mixture and vigorous agitation followed by separation of the octanol and buffer layers by centrifugation, duplicate samples are removed from each layer and diluted prior to analysis by LC-MS/MS.
The duplicate log D values must be with 0.4 log units of each other and the positive controls must be within 0.2 log units of the known log D value.

mu opioid receptor [3] = molecular target: T1, mu opioid receptor (Homo sapiens, UniProt P35372); assay: Beta-arrestin recruitment assay (DiscoveRx PathHunter); type: cell-based; design: host or cells: U2OS cells
Procedure: The ability of agonists to cause recruitment of beta-arrestin to the mu opioid receptor was measured using DiscoveRx PathHunter technology. A pro-linked tagged mu-opioid receptor and an EA-tagged beta-arrestin were expressed in U20S cells and beta-arrestin recruitment measured following the methodology in McGuinness et al., 2009 (J Biomol Screen 14:49-58, Characterizing cannabinoid CB2 receptor ligands using DiscoverRx PathHunter beta-arrestin assay—McGuinness D., Malikzay A., Visconti R., Lin K., Bayne M., Monsma F., Lunn C A.)
Data appear in the Table below under “arrestin EC50” in nM.
Target sequence in this assay (P35372 whole entry, species assumed): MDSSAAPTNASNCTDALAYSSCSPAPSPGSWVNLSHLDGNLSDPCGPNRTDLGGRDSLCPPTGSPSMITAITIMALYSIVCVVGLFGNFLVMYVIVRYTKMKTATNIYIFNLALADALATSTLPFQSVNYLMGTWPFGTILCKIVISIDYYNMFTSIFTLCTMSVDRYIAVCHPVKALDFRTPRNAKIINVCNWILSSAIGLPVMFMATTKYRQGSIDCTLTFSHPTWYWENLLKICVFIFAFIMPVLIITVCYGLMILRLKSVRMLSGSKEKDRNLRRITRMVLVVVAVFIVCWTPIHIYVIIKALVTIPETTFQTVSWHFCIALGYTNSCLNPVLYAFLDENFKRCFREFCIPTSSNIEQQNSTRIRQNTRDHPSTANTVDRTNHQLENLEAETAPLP
Target sequence in this assay (P32121 whole entry partner, species assumed): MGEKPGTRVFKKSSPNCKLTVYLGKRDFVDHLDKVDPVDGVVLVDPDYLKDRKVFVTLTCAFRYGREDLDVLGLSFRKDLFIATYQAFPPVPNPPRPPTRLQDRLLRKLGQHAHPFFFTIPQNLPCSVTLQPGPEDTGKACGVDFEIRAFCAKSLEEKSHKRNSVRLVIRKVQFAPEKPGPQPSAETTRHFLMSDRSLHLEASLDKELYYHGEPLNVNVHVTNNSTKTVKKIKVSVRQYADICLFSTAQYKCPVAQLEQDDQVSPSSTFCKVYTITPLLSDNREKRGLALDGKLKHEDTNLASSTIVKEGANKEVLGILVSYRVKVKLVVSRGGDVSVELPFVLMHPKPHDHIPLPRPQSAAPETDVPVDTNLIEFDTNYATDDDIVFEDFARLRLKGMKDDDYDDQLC

mu opioid receptor [4] = molecular target: T1, mu opioid receptor; assay: Inhibition of forskolin stimulated cAMP production (alphascreen); type: cell-based; design: expressed in transfected cells; host or cells: CHO cells
Procedure: Forskolin Stimulated cAMP
The ability of mu opioid receptor agonists to inhibit forskolin stimulated cAMP production was measured in CHO cells recombinantly expressing the mu opioid receptor, using alphascreen technology as described in Nickolls et al., 2005, with the additional inclusion of 50 uM forskolin in the assay buffer. (J Pharmacol Exp Ther 313; 1281-88, Functional selectivity of melanocortin 4 receptor peptide and non-peptide agonists: Evidence for ligand specific conformational states. Nickolls S A., Fleck B., Hoare S., Maki R.)
Data appear in the Table below under “mu-opioid IC50” in nM.
Target sequence in this assay (P35372 whole entry, species assumed): as the sequence (P35372 whole entry, species assumed) above

[5] = octanol / 0.1M phosphate buffer pH 7.4, positive controls; cited from earlier work
[6] = pH 7.4, human liver microsomes, 1 μM substrate
[7] = pH 7.4, rat liver microsomes, 1 μM substrate
[8] = U20S cells expressing pro-linked tagged mu-opioid receptor and EA-tagged beta-arrestin, read-out: β-Arrestin EC50
[9] = CHO cells recombinantly expressing the mu opioid receptor, 50 uM forskolin, read-out: mu-opioid IC50

SMILES | microsomal CLint at 1 μM [1, 6] | microsomal CLint at 1 μM [2, 7] | logD (physchem) | EC50 (mu opioid receptor [3]; [8]) | EC50 (mu opioid receptor [3]) | further results
Cc1cc(O)cc(C)c1C[C@H](NC(=N)N)C(=O)N[C@H](C)C(=O)NCC(CNC(=N)N)Cc1ccccc1 (mixture of isomers) [Example 2] | 15.9 µL/min/mg | 8.5 µL/min/mg | -0.7 | 34.8 nM |  | 
Cc1cc(O)cc(C)c1C[C@H](NC(=N)N)C(=O)N[C@H](C)C(=O)NC[C@H](Cc1ccccc1)NC(=N)N [Example 1, N-[Amino(imino)methyl]-2,6-dimethyl-L-tyrosyl-N-[(2S)-2-{[amino(imino)methyl]amino}-3-phenylpropyl]-D-alaninamide] | 10.6 µL/min/mg | 8.5 µL/min/mg | -0.2 | 41.4 nM |  | IC50 (mu opioid receptor [4]; [9]): 26 nM
Cc1cc(O)cc(C)c1C[C@H](N=C(N(C)C)N(C)C)C(=O)N[C@H](C)C(=O)NC[C@H](Cc1ccccc1)NC(=N)N [Example 3] |  |  |  |  | 10000 nM | 
C[C@@H](NC(=O)[C@H](Cc1ccc(O)cc1)NC(=N)N)C(=O)NC[C@H](Cc1ccccc1)NC(=N)N [Example 4] | 9.54 µL/min/mg | 13.4 µL/min/mg | -0.3 |  | 5070 nM | 
Cc1cc(O)cc(C)c1C[C@H](NC(=N)N)C(=O)N[C@H](C)C(=O)NC[C@H](Cc1ccccc1)NC(=O)CNC(=N)N [Example 5] |  |  |  | 47.6 nM |  | 
Cc1cc(O)cc(C)c1C[C@H](NC(=N)N)C(=O)N[C@H](C)C(=O)NC[C@H](Cc1ccccc1)NC(=O)CCNC(=N)N [Example 6] | 8 µL/min/mg | 8.5 µL/min/mg |  |  | 162 nM | 
Cc1cc(O)cc(C)c1C[C@H](NC(=N)N)C(=O)N[C@H](CCCCCC(=O)O)C(=O)NCCCc1ccccc1 [Example 7] | 8.61 µL/min/mg | 9.48 µL/min/mg | 0.8 |  | 2460 nM | IC50 (mu opioid receptor [4]): 116 nM
CC(=O)N[C@H](CNC(=O)[C@@H](C)NC(=O)[C@H](Cc1c(C)cc(O)cc1C)NC(=N)N)Cc1ccccc1 [Example 8] | 15.4 µL/min/mg | 12.1 µL/min/mg | -0.35 |  |  | IC50 (mu opioid receptor [4]; [9]): 26.6 nM
Cc1cc(O)cc(C)c1C[C@H](NC(=N)N)C(=O)N[C@H](C)C(=O)NC[C@@H](N)Cc1ccccc1 [Example 9] | 13.6 µL/min/mg | 12.9 µL/min/mg |  | 55.2 nM |  | IC50 (mu opioid receptor [4]; [9]): 15.3 nM
Cc1cc(O)cc(C)c1C[C@H](NC(=N)N)C(=O)N[C@H](CC[S+](C)[O-])C(=O)NC[C@H](Cc1ccccc1)NC(=N)N (stereo partly drawn) [Example 10, N-alpha-[amino(imino)methyl]-N-[(1R)-1-{[(2S)-2-{[amino(imino)methyl]amino}-3-phenypropyl]carbamoyl}-3-(methylsulfinyl)propyl]-2,6-dimethyl-L-tyrosinamide bis-trifluoroacetate] |  |  |  | 17.6 nM |  | 
Cc1cc(O)cc(C)c1C[C@H](NC(=N)N)C(=O)N[C@H](C)C(=O)NCCCc1ccccc1 [Example 11, (S)-2-Guanidino-3-(4-hydroxy-2,6-dimethyl-phenyl)-N-[(R)-1-(3-phenyl-propylcarbamoyl)-ethyl]-propionamide] |  |  |  |  |  | microsomal CLint at 1 μM ([1]; pooled human liver microsomes, pH 7.4, 1 μM substrate): 74 µL/min/mg; microsomal CLint at 1 μM ([2]; pooled rat liver microsomes, pH 7.4, 1 μM substrate): 61 µL/min/mg; logD (physchem; octanol / 0.1 M phosphate buffer): -0.1; IC50 (mu opioid receptor [4]): 8.59 nM
CN(C)CCC=C1c2ccccc2CCc2ccccc21 [amitriptyline] |  |  |  |  |  | log D (known value of positive control) [5]: 2.7±0.2
Cc1ncc2n1-c1ccc(Cl)cc1C(c1ccccc1F)=NC2 [midazolam] |  |  |  |  |  | log D (known value of positive control) [5]: 3.3±0.2
